Results reported in PubChem BioAssay AID1918993 (Molecular Pharmacology Branch, DTP, NCI, 2023).
“And” between values parts separate entries of the source, which are not always exact repeats. Equal entries are not always repeated. Values belong to the compound of their own block, whether it stands above or below them.

Tested on: 233499-124-R-J3-PDC complex spheroid growth
Experiment: Anticancer human tumor 233499-124-R-J3-PDC patient-derived colon adenocarcinoma cell line growth inhibition [AhR]
Details: for viability, T/C: stronger effect = lower value
Summary of the method: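 Spheroids combined tumor cells with HUVEC endothelial cells and human MSCs as stroma. AhR antagonists were paired with standard or investigational drugs, each dosed in half-log steps down from near clinical Cmax, or from 10 microM where Cmax was unknown.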

[1] = curve of first compound, second compound 0.1 µM
[2] = curve of first compound, second compound 0.316 µM
[3] = curve of first compound, second compound 1 µM
[4] = curve of first compound, second compound 3.16 µM
[5] = curve of first compound, second compound 10 µM
[6] = second compound 0.1 µM, first compound 0.0316 µM
[7] = second compound 0.1 µM, first compound 0.1 µM
[8] = second compound 0.1 µM, first compound 0.316 µM
[9] = second compound 0.1 µM, first compound 1 µM
[10] = second compound 0.1 µM, first compound 3.16 µM
[11] = second compound 0.1 µM, first compound 10 µM
[12] = second compound 0.316 µM, first compound 0.0316 µM
[13] = second compound 0.316 µM, first compound 0.1 µM
[14] = second compound 0.316 µM, first compound 0.316 µM
[15] = second compound 0.316 µM, first compound 1 µM
[16] = second compound 0.316 µM, first compound 3.16 µM
[17] = second compound 0.316 µM, first compound 10 µM
[18] = second compound 1 µM, first compound 0.0316 µM
[19] = second compound 1 µM, first compound 0.1 µM
[20] = second compound 1 µM, first compound 0.316 µM
[21] = second compound 1 µM, first compound 1 µM
[22] = second compound 1 µM, first compound 3.16 µM
[23] = second compound 1 µM, first compound 10 µM
[24] = second compound 3.16 µM, first compound 0.0316 µM
[25] = second compound 3.16 µM, first compound 0.1 µM
[26] = second compound 3.16 µM, first compound 0.316 µM
[27] = second compound 3.16 µM, first compound 1 µM
[28] = second compound 3.16 µM, first compound 3.16 µM
[29] = second compound 3.16 µM, first compound 10 µM
[30] = second compound 10 µM, first compound 0.0316 µM
[31] = second compound 10 µM, first compound 0.1 µM
[32] = second compound 10 µM, first compound 0.316 µM
[33] = second compound 10 µM, first compound 1 µM
[34] = second compound 10 µM, first compound 3.16 µM
[35] = second compound 10 µM, first compound 10 µM
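Further: spheroids exposed to agents for seven days before reading.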

SMILES: CC1COCCN1c1cc(C2(S(C)(=N)=O)CC2)nc(-c2ccnc3[nH]ccc23)n1 (centres undefined) + Cc1cncc(-c2nc(NCCc3c[nH]c4ccccc34)c3ncn(C(C)C)c3n2)c1
IC50 [1]: > 10 µM | IC50 [2]: > 10 µM | IC50 [3]: > 10 µM | IC50 [4]: > 10 µM | IC50 [5]: < 0.0316 µM | viability, T/C [6]: 99% | viability, T/C [7]: 90.3% | viability, T/C [8]: 95.1% | viability, T/C [9]: 95.1% | viability, T/C [10]: 93% | viability, T/C [11]: 81.2% | viability, T/C [12]: 80.7% | viability, T/C [13]: 71% | viability, T/C [14]: 61.6% | viability, T/C [15]: 91.2% | viability, T/C [16]: 92.7% | viability, T/C [17]: 78.1% | viability, T/C [18]: 73.9% | viability, T/C [19]: 70.1% | viability, T/C [20]: 78.7% | viability, T/C [21]: 77.2% | viability, T/C [22]: 63.3% | viability, T/C [23]: 64.7% | viability, T/C [24]: 81.8% | viability, T/C [25]: 76% | viability, T/C [26]: 81.8% | viability, T/C [27]: 83.1% | viability, T/C [28]: 71.3% | viability, T/C [29]: 59.7% | viability, T/C [30]: 11.2% | viability, T/C [31]: 14.3% | viability, T/C [32]: 20% | viability, T/C [33]: 15.1% | viability, T/C [34]: 14% | viability, T/C [35]: 11.1%

SMILES: CC(C)c1c(-c2ccccc2)nc2c(C#N)c[nH]n2c1=O
viability, T/C (compound 0.0316 µM): 101% and 108% and 114% | viability, T/C (compound 0.1 µM): 105% (2×) and 103% | viability, T/C (compound 0.316 µM): 107% and 96% and 113% | viability, T/C (compound 1 µM): 94% and 102% and 93.5% | viability, T/C (compound 3.16 µM): 98.7% and 110% and 117% | viability, T/C (compound 10 µM): 117% and 124% and 105% | IC50 (curve of compound): > 10 µM

SMILES: O=C(C=Cn1cnc(-c2cc(C(F)(F)F)cc(C(F)(F)F)c2)n1)NNc1cnccn1 + Cc1cncc(-c2nc(NCCc3c[nH]c4ccccc34)c3ncn(C(C)C)c3n2)c1
IC50 [1]: > 3 µM | IC50 [2]: > 3 µM | IC50 [3]: > 3 µM | IC50 [4]: > 3 µM | IC50 [5]: < 0.00949 µM | viability, T/C (second compound 0.1 µM, first compound 0.00949 µM): 99.6% | viability, T/C (second compound 0.1 µM, first compound 0.03 µM): 108% | viability, T/C (second compound 0.1 µM, first compound 0.0949 µM): 102% | viability, T/C (second compound 0.1 µM, first compound 0.3 µM): 89.3% | viability, T/C (second compound 0.1 µM, first compound 0.949 µM): 100% | viability, T/C (second compound 0.1 µM, first compound 3 µM): 68.2% | viability, T/C (second compound 0.316 µM, first compound 0.00949 µM): 98.5% | viability, T/C (second compound 0.316 µM, first compound 0.03 µM): 94.9% | viability, T/C (second compound 0.316 µM, first compound 0.0949 µM): 95.7% | viability, T/C (second compound 0.316 µM, first compound 0.3 µM): 106% | viability, T/C (second compound 0.316 µM, first compound 0.949 µM): 53.5% | viability, T/C (second compound 0.316 µM, first compound 3 µM): 54% | viability, T/C (second compound 1 µM, first compound 0.00949 µM): 88.5% | viability, T/C (second compound 1 µM, first compound 0.03 µM): 80.9% | viability, T/C (second compound 1 µM, first compound 0.0949 µM): 99.1% | viability, T/C (second compound 1 µM, first compound 0.3 µM): 96.3% | viability, T/C (second compound 1 µM, first compound 0.949 µM): 74% | viability, T/C (second compound 1 µM, first compound 3 µM): 58.3% | viability, T/C (second compound 3.16 µM, first compound 0.00949 µM): 76.3% | viability, T/C (second compound 3.16 µM, first compound 0.03 µM): 81.6% | viability, T/C (second compound 3.16 µM, first compound 0.0949 µM): 93.2% | viability, T/C (second compound 3.16 µM, first compound 0.3 µM): 87% | viability, T/C (second compound 3.16 µM, first compound 0.949 µM): 60.7% | viability, T/C (second compound 3.16 µM, first compound 3 µM): 59.6% | viability, T/C (second compound 10 µM, first compound 0.00949 µM): 21.2% | viability, T/C (second compound 10 µM, first compound 0.03 µM): 35.3% | viability, T/C (second compound 10 µM, first compound 0.0949 µM): 30.8% | viability, T/C (second compound 10 µM, first compound 0.3 µM): 22% | viability, T/C (second compound 10 µM, first compound 0.949 µM): 28.9% | viability, T/C (second compound 10 µM, first compound 3 µM): 25.1%

Second part, led by results:

IC50 [1]: > 10 µM | IC50 [2]: > 10 µM | IC50 [3]: > 10 µM | IC50 [4]: > 10 µM | IC50 [5]: > 10 µM
SMILES: COc1cc(C2c3cc4c(cc3C(OC3OC5COC(C)OC5C(O)C3O)C3COC(=O)C23)OCO4)cc(OC)c1O (centres undefined) + Cc1ccccc1N=Nc1ccc(NC(=O)c2ccnn2C)c(C)c1
viability, T/C [6]: 104% | viability, T/C [7]: 101% | viability, T/C [8]: 96% | viability, T/C [9]: 101% | viability, T/C [10]: 95.7% | viability, T/C [11]: 89.7% | viability, T/C [12]: 99.7% | viability, T/C [13]: 84.7% | viability, T/C [14]: 107% | viability, T/C [15]: 116% | viability, T/C [16]: 114% | viability, T/C [17]: 105% | viability, T/C [18]: 95.9% | viability, T/C [19]: 105% | viability, T/C [20]: 98.7% | viability, T/C [21]: 88.9% | viability, T/C [22]: 99.1% | viability, T/C [23]: 109% | viability, T/C [24]: 93.4% | viability, T/C [25]: 97.5% | viability, T/C [26]: 93.7% | viability, T/C [27]: 108% | viability, T/C [28]: 107% | viability, T/C [29]: 114% | viability, T/C [30]: 106% | viability, T/C [31]: 102% | viability, T/C [32]: 107% | viability, T/C [33]: 128% | viability, T/C [34]: 106% | viability, T/C [35]: 99.4%

IC50 [1]: > 1 µM | IC50 [2]: > 1 µM | IC50 [3]: 0.984 µM | IC50 [4]: > 1 µM | IC50 [5]: > 1 µM
SMILES: CC1COCCN1c1cc(-c2ccnn2C)c2ccnc(-c3ccn[nH]3)c2n1 (centres undefined) + Cc1ccccc1N=Nc1ccc(NC(=O)c2ccnn2C)c(C)c1
viability, T/C (second compound 0.1 µM, first compound 0.00316 µM): 91.3% | viability, T/C (second compound 0.1 µM, first compound 0.01 µM): 98.8% | viability, T/C [6]: 105% | viability, T/C [7]: 93.9% | viability, T/C [8]: 68.2% | viability, T/C [9]: 55.1% | viability, T/C (second compound 0.316 µM, first compound 0.00316 µM): 99.4% | viability, T/C (second compound 0.316 µM, first compound 0.01 µM): 93.9% | viability, T/C [12]: 92.2% | viability, T/C [13]: 92.3% | viability, T/C [14]: 75% | viability, T/C [15]: 50.7% | viability, T/C (second compound 1 µM, first compound 0.00316 µM): 87.1% | viability, T/C (second compound 1 µM, first compound 0.01 µM): 97.1% | viability, T/C [18]: 85.6% | viability, T/C [19]: 91.8% | viability, T/C [20]: 81.6% | viability, T/C [21]: 49.3% | viability, T/C (second compound 3.16 µM, first compound 0.00316 µM): 91.8% | viability, T/C (second compound 3.16 µM, first compound 0.01 µM): 103% | viability, T/C [24]: 85% | viability, T/C [25]: 74% | viability, T/C [26]: 57.2% | viability, T/C [27]: 58% | viability, T/C (second compound 10 µM, first compound 0.00316 µM): 103% | viability, T/C (second compound 10 µM, first compound 0.01 µM): 99.3% | viability, T/C [30]: 101% | viability, T/C [31]: 80.5% | viability, T/C [32]: 74.5% | viability, T/C [33]: 58.7%

IC50 (curve of compound): > 10 µM
SMILES: COc1ccc([C@@H](O)c2cc(-c3ncnc4cc(N5CCOCC5)ccc34)c(F)cc2Cl)nn1
viability, T/C (compound 0.0316 µM): 99.4% and 94% and 95.8% | viability, T/C (compound 0.1 µM): 95.7% and 89% and 102% | viability, T/C (compound 0.316 µM): 94.3% and 102% and 98.5% | viability, T/C (compound 1 µM): 99.9% and 87% and 104% | viability, T/C (compound 3.16 µM): 92.7% and 89.7% and 82.3% | viability, T/C (compound 10 µM): 98.3% and 91% and 81.9%
